Target: T1, human Nav1.8 (Homo sapiens, UniProt Q9Y5Y9)
T1 construct: expressed in transfected cells; host or cells: HEK293 (HEK293-Nav1.8)
Assay: Nav1.8 sodium channels assay, QPatch 48 HTX electrophysiology in HEK293-Nav1.8 cells
Format: cell-based
Settings: at least one set of experimental runs; read-out: average pIC50 value against Nav1.8 (converted)
In short: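 IC50 came from 6-8 point curves of P2 current amplitude, normalized to baseline and a positive reference, and corrected for run-down using vehicle-only wells. Automated patch clamp used HEK293-Nav1.8 (with Navβ1 and TREK1) at pH 7.4 outside and CsF-based solution inside. An 8 s inactivating step at −46 mV preceded the 0 mV test pulse, repeated at 0.07 Hz.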

T1 sequence (Q9Y5Y9 whole entry): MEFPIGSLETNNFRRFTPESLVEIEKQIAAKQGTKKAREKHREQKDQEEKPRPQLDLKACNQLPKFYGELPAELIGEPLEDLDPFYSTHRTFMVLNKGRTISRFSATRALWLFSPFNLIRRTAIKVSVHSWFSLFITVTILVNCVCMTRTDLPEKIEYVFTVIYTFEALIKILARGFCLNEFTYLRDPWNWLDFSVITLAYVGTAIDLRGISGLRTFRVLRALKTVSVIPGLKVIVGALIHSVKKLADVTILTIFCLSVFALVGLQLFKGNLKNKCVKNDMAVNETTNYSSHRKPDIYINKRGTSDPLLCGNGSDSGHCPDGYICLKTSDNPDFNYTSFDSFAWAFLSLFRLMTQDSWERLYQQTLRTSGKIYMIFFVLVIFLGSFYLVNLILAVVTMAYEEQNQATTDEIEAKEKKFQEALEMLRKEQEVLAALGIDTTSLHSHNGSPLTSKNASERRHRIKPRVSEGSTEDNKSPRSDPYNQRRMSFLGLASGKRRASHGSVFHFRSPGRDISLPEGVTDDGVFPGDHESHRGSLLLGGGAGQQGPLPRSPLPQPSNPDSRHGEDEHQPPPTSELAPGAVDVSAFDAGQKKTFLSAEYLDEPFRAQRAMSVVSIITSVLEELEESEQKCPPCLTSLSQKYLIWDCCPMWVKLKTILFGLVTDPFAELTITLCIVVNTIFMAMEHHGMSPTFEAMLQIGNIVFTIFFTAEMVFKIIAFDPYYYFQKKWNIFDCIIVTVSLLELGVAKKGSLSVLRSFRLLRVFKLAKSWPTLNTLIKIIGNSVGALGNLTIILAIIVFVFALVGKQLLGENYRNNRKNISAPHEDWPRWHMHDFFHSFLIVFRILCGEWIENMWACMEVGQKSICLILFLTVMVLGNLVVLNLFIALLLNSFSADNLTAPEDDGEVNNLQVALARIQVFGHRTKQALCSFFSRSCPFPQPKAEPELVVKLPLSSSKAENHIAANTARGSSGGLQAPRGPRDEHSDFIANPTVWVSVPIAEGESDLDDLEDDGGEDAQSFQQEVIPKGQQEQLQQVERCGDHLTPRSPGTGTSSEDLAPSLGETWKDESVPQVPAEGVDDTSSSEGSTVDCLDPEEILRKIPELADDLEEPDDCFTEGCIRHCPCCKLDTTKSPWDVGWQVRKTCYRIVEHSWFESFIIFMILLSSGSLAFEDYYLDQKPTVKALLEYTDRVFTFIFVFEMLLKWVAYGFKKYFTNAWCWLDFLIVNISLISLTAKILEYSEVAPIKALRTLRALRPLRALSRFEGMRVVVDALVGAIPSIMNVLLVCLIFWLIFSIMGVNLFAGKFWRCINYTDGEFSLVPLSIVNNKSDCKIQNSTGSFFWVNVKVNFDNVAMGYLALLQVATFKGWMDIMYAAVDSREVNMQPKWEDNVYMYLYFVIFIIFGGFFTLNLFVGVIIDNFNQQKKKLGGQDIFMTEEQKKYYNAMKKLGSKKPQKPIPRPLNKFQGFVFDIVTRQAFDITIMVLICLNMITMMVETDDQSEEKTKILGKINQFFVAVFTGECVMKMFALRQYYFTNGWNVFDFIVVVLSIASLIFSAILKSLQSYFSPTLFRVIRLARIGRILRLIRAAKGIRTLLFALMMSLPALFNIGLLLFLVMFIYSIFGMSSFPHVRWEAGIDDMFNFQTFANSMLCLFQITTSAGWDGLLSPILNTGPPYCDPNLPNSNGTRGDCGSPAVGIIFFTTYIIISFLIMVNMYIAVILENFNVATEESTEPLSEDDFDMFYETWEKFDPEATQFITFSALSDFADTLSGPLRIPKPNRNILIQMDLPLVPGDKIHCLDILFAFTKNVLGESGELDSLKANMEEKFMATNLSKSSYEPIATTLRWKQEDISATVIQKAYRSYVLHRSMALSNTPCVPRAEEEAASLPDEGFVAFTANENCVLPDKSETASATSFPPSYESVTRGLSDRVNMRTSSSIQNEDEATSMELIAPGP
T1 sequence (Q07699 19-218 partner): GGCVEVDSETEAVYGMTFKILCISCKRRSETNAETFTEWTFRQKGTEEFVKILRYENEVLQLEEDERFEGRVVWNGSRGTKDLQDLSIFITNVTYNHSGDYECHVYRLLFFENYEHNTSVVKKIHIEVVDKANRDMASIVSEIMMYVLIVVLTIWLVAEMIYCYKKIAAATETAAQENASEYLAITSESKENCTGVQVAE

First: COc1cc(F)ccc1N1CN(c2ccc(=O)[nH]c2C)C(=O)c2cc(C(F)(F)F)ccc21 [Example 226, 1-(4-fluoro-2-methoxyphenyl)-3-(2-methyl-6-oxo-1,6-dihydropyridin-3-yl)-6-(trifluoromethyl)-2,3-dihydroquinazolin-4(1H)-one]
Second: Cc1[nH]c(=O)ccc1N1CN(c2cc(F)cc(F)c2C)c2ccc(C(F)(F)F)cc2C1=O [Example 235, 1-(3,5-difluoro-2-methylphenyl)-3-(2-methyl-6-oxo-1,6-dihydropyridin-3-yl)-6-(trifluoromethyl)-2,3-dihydroquinazolin-4(1H)-one]
The IC50 of the first is lower: ≤ 100 nM for the first, 794 to 7940 nM for the second.

`Cc1cc(F)ccc1N1CN(c2ccc(=O)[nH]c2C)C(=O)c2cc(F)c(Cl)nc21` [Example 227, 7-chloro-6-fluoro-1-(4-fluoro-2-methylphenyl)-3-(2-methyl-6-oxo-1,6-dihydropyridin-3-yl)-2,3-dihydropyrido[2,3-d]pyrimidin-4(1H)-one] and `Cc1cc(F)ccc1N1CN(c2ccc(=O)[nH]c2C)C(=O)c2cc(F)c(C#N)cc21` [Example 242, 6-fluoro-1-(4-fluoro-2-methylphenyl)-3-(2-methyl-6-oxo-1,6-dihydropyridin-3-yl)-4-oxo-1,2,3,4-tetrahydroquin-azoline-7-carbonitrile] cannot be ordered by IC50: ≤ 100 nM for the first, ≤ 100 nM for the second.

Compared with `COc1cc(F)ccc1N1CN(c2ccc(=O)[nH]c2)C(=O)c2ccc(C#N)cc21` [Example 229, 1-(4-fluoro-2-methoxyphenyl)-4-oxo-3-(6-oxo-1,6-dihydropyridin-3-yl)-1,2,3,4-tetra-hydroquinazoline-7-carbonitrile], `Cc1cc(OC(F)(F)F)ccc1N1CN(c2ccc(=O)[nH]c2)C(=O)c2cc(C(F)(F)F)ccc21` [Example 231, 1-(2-methyl-4-(trifluoromethoxy)phenyl)-3-(6-oxo-1,6-dihydropyridin-3-yl)-6-(trifluoromethyl)-2,3-dihydroquinazolin-4(1H)-one] is lower in IC50: 794 to 7940 nM for the first, ≤ 100 nM for the second.

Compared with `Cc1cc(F)ccc1N1CN(c2ccc(=O)[nH]c2C)C(=O)c2ccc(OCC(F)(F)F)cc21` [Example 230, 1-(4-fluoro-2-methylphenyl)-3-(2-methyl-6-oxo-1,6-dihydropyridin-3-yl)-7-(2,2,2-trifluoroethoxy)-2,3-dihydroquinazolin-4(1H)-one], `Cc1cc(F)ccc1N1CN(c2cc[nH]c(=O)c2C)C(=O)c2cc(C(F)(F)F)ccc21` [Example 238, 1-(4-fluoro-2-methylphenyl)-3-(3-methyl-2-oxo-1,2-dihydropyridin-4-yl)-6-(trifluoromethyl)-2,3-dihydroquinazolin-4(1H)-one] is higher in IC50: ≤ 100 nM for the first, 794 to 7940 nM for the second.

First: Cc1cc(F)ccc1N1CN(c2c(Cl)cc(=O)[nH]c2C)C(=O)c2cc(Cl)ccc21 [Example 232, 6-chloro-3-(4-chloro-2-methyl-6-oxo-1,6-dihydropyridin-3-yl)-1-(4-fluoro-2-methylphenyl)-2,3-dihydroquinazolin-4(1H)-one]
Second: Cc1cc(F)ccc1N1CN(c2ccc(=O)[nH]c2C)C(=O)c2cc(C#N)c(Cl)cc21 [Example 233, 7-chloro-1-(4-fluoro-2-methylphenyl)-3-(2-methyl-6-oxo-1,6-dihydropyridin-3-yl)-4-oxo-1,2,3,4-tetra-hydroquinazoline-6-carbonitrile]
The IC50 of the first is higher: 794 to 7940 nM for the first, ≤ 100 nM for the second.

First: Cc1cc(F)ccc1N1CN(c2ccc(=O)[nH]c2C)C(=O)c2c1ccc(Cl)c2C [Example 234, 6-chloro-1-(4-fluoro-2-methylphenyl)-5-methyl-3-(2-methyl-6-oxo-1,6-dihydropyridin-3-yl)-2,3-dihydroquinazolin-4(1H)-one]
Second: COc1cccc2c1C(=O)N(c1ccc(=O)[nH]c1C)CN2c1ccc(F)cc1C(C)C [Example 236, 1-(4-fluoro-2-isopropylphenyl)-5-methoxy-3-(2-methyl-6-oxo-1,6-dihydropyridin-3-yl)-2,3-dihydroquinazolin-4(1H)-one]
The IC50 of the first is lower: ≤ 100 nM for the first, 794 to 7940 nM for the second.

First: Cc1[nH]c(=O)ccc1N1CN(C23CC(C2)C3)c2cc(C(F)(F)F)ccc2C1=O [Example 237, 1-(bicyclo[1.1.1]pentan-1-yl)-3-(2-methyl-6-oxo-1,6-dihydropyridin-3-yl)-7-(trifluoromethyl)-2,3-dihydroquinazolin-4(1H)-one]
Second: Cc1[nH]c(=O)ccc1N1CN(c2ccccc2CC(F)(F)F)c2ccc(C(F)(F)F)cc2C1=O [Example 240, 3-(2-Methyl-6-oxo-1,6-dihydropyridin-3-yl)-1-(2-(2,2,2-trifluoroethyl)phenyl)-6-(trifluoromethyl)-2,3-dihydroquinazolin-4(1H)-one]
The IC50 of the first is higher: 794 to 7940 nM for the first, ≤ 100 nM for the second.

First: Cc1cc(F)ccc1N1CN(c2ccc(=O)[nH]c2C)Cc2cc(C(F)(F)F)ccc21 [Example 239, 5-(1-(4-fluoro-2-methylphenyl)-6-(trifluoromethyl)-1,4-dihydroquinazolin-3(2H)-yl)-6-methylpyridin-2(1H)-one]
Second: Cc1cc(F)ccc1N1CN(c2ccc[n+]([O-])c2)C(=O)c2cc(C(F)(F)F)ccc21 [Example 249, 3-(1-(4-fluoro-2-methylphenyl)-4-oxo-6-(trifluoromethyl)-1,4-dihydroquinazolin-3(2H)-yl)pyridine 1-oxide]
The IC50 of the first is lower: 126 to 631 nM for the first, 794 to 7940 nM for the second.

First: Cc1cc(F)ccc1N1CN(c2ccc(=O)[nH]c2C)C(=O)c2ccc(OC(F)F)nc21 [Example 241, 7-(difluoromethoxy)-1-(4-fluoro-2-methylphenyl)-3-(2-methyl-6-oxo-1,6-dihydropyridin-3-yl)-2,3-dihydropyrido[2,3-d]pyrimidin-4(1H)-one]
Second: Cc1c[n+]([O-])ccc1N1CN(c2ccc(F)cc2C)c2cc(C(F)F)c(Cl)cc2C1=O [Example 244, 4-(6-Chloro-7-(difluoromethyl)-1-(4-fluoro-2-methylphenyl)-4-oxo-1,4-dihydroquinazolin-3(2H)-yl)-3-methylpyridine 1-oxide]
The IC50 of the first is higher: 126 to 631 nM for the first, ≤ 100 nM for the second.

First: CCc1cc(F)ccc1N1CN(c2ccncc2C)C(=O)c2cc(Cl)c(C#N)cc21 [Example 243, 6-chloro-1-(2-ethyl-4-fluorophenyl)-3-(3-methylpyridin-4-yl)-4-oxo-1,2,3,4-tetrahydroquin-azoline-7-carbonitrile]
Second: CCc1cc(F)ccc1N1CN(c2cc[n+]([O-])cc2C)C(=O)c2cc(Cl)c(C#N)cc21 [Example 247, 4-(6-chloro-7-cyano-1-(2-ethyl-4-fluorophenyl)-4-oxo-1,4-dihydroquinazolin-3(2H)-yl)-3-methylpyridine 1-oxide]
The IC50 of the first is higher: 126 to 631 nM for the first, ≤ 100 nM for the second.

`CCc1cc(F)ccc1N1CN(c2cc[n+]([O-])cc2C)C(=O)c2cc(Cl)c(F)cc21` [Example 245, 4-(6-chloro-1-(2-ethyl-4-fluorophenyl)-7-fluoro-4-oxo-1,4-dihydroquinazolin-3(2H)-y1)-3-methylpyridine 1-oxide] and `Cc1c[n+]([O-])ccc1N1CN(c2ccc(OC(F)(F)F)cc2C)c2cc(F)c(Cl)cc2C1=O` [Example 246, 4-(6-chloro-7-fluoro-1-(2-methyl-4-(trifluoromethoxy)phenyl)-4-oxo-1,4-dihydroquinazolin-3(2H)-yl)-3-methylpyridine 1-oxide] cannot be ordered by IC50: ≤ 100 nM for the first, ≤ 100 nM for the second.

Work on `Cc1cc(F)ccc1N1CN(c2ccc(C(N)=O)[n+]([O-])c2)C(=O)c2c1ccc(Cl)c2F` [Example 248, 2-carbamoyl-5-(6-chloro-5-fluoro-1-(4-fluoro-2-methylphenyl)-4-oxo-1,4-dihydroquinazolin-3(2H)-yl)pyridine 1-oxide] yielded an IC50 of 794 to 7940 nM.

— patent US20230103791A1 (GLAXOSMITHKLINE INTELLECTUAL PROPERTY DEVELOPMENT LIMITED, priority 2019, published 2023)
